How the values were obtained:
[1] = tested on: Tyrosine-protein kinase ABL1 (Homo sapiens), P00519 [H396P]; conditions: Compound concentration 1000.0 nM
[2] = target: RAC-alpha serine/threonine-protein kinase (Homo sapiens) (UniProt P31749); conditions: Compound concentration 1000.0 nM
[3] = target: 5'-AMP-activated protein kinase catalytic subunit alpha-2 (Homo sapiens) (UniProt P54646); conditions: Compound concentration 1000.0 nM
[4] = target: Mitogen-activated protein kinase kinase kinase 6 (Homo sapiens) (UniProt O95382); conditions: Compound concentration 1000.0 nM
[5] = target: Tyrosine-protein kinase receptor UFO (Homo sapiens) (UniProt P30530); conditions: Compound concentration 1000.0 nM
[6] = target: Serine/threonine-protein kinase BRSK2 (Homo sapiens) (UniProt Q8IWQ3); conditions: Compound concentration 1000.0 nM
[7] = target: Tyrosine-protein kinase BTK (Homo sapiens) (UniProt Q06187); conditions: Compound concentration 1000.0 nM
[8] = target: Cyclin-dependent kinase 11A (Homo sapiens) (UniProt Q9UQ88); conditions: Compound concentration 1000.0 nM
[9] = target: Cyclin-dependent kinase 2 (Homo sapiens) (UniProt P24941); conditions: Compound concentration 1000.0 nM
[10] = target: Cyclin-dependent kinase 5 (Homo sapiens) (UniProt Q00535); conditions: Compound concentration 1000.0 nM
[11] = target: Serine/threonine-protein kinase Chk1 (Homo sapiens) (UniProt O14757); conditions: Compound concentration 1000.0 nM
[12] = target: Casein kinase II subunit alpha' (Homo sapiens) (UniProt P19784); conditions: Compound concentration 1000.0 nM
[13] = target: Death-associated protein kinase 2 (Homo sapiens) (UniProt Q9UIK4); conditions: Compound concentration 1000.0 nM
[14] = tested on: Epidermal growth factor receptor (Homo sapiens), P00533 [L858R,T790M]; conditions: Compound concentration 1000.0 nM
[15] = target: Ephrin type-A receptor 5 (Homo sapiens) (UniProt P54756); conditions: Compound concentration 1000.0 nM
[16] = target: Receptor tyrosine-protein kinase erbB-2 (Homo sapiens) (UniProt P04626); conditions: Compound concentration 1000.0 nM
[17] = target: Mitogen-activated protein kinase 3 (Homo sapiens) (UniProt P27361); conditions: Compound concentration 1000.0 nM
[18] = target: Fibroblast growth factor receptor 3 (Homo sapiens) (UniProt P22607); conditions: Compound concentration 1000.0 nM
[19] = target: Receptor-type tyrosine-protein kinase FLT3 (Homo sapiens) (UniProt P36888); conditions: Compound concentration 1000.0 nM
[20] = tested on: Receptor-type tyrosine-protein kinase FLT3 (Homo sapiens), P36888 [D835Y]; conditions: Compound concentration 1000.0 nM
[21] = tested on: Receptor-type tyrosine-protein kinase FLT3 (Homo sapiens), P36888 [UNDEFINED MUTATION]; conditions: Compound concentration 1000.0 nM
[22] = target: Homeodomain-interacting protein kinase 3 (Homo sapiens) (UniProt Q9H422); conditions: Compound concentration 1000.0 nM
[23] = target: Insulin-like growth factor 1 receptor (Homo sapiens) (UniProt P08069); conditions: Compound concentration 1000.0 nM
[24] = target: Interleukin-1 receptor-associated kinase 4 (Homo sapiens) (UniProt Q9NWZ3); conditions: Compound concentration 1000.0 nM
[25] = tested on: Mast/stem cell growth factor receptor Kit (Homo sapiens), P10721 [V559D,V654A]; conditions: Compound concentration 1000.0 nM
[26] = target: Serine/threonine-protein kinase STK11 (Homo sapiens) (UniProt Q15831); conditions: Compound concentration 1000.0 nM
[27] = target: Tyrosine-protein kinase Lyn (Homo sapiens) (UniProt P07948); conditions: Compound concentration 1000.0 nM
[28] = target: Mitogen-activated protein kinase kinase kinase 1 (Homo sapiens) (UniProt Q13233); conditions: Compound concentration 1000.0 nM
[29] = target: Mitogen-activated protein kinase kinase kinase 3 (Homo sapiens) (UniProt Q99759); conditions: Compound concentration 1000.0 nM
[30] = target: Mitogen-activated protein kinase kinase kinase kinase 2 (Homo sapiens) (UniProt Q12851); conditions: Compound concentration 1000.0 nM
[31] = target: MAP/microtubule affinity-regulating kinase 4 (Homo sapiens) (UniProt Q96L34); conditions: Compound concentration 1000.0 nM
[32] = target: Serine/threonine-protein kinase MRCK beta (Homo sapiens) (UniProt Q9Y5S2); conditions: Compound concentration 1000.0 nM
[33] = target: Myosin light chain kinase 2, skeletal/cardiac muscle (Homo sapiens) (UniProt Q9H1R3); conditions: Compound concentration 1000.0 nM
[34] = target: Phosphatidylinositol 4-phosphate 5-kinase type-1 gamma (Homo sapiens) (UniProt O60331); conditions: Compound concentration 1000.0 nM
[35] = target: Phosphatidylinositol 5-phosphate 4-kinase type-2 gamma (Homo sapiens) (UniProt Q8TBX8); conditions: Compound concentration 1000.0 nM
[36] = target: Serine/threonine-protein kinase PLK3 (Homo sapiens) (UniProt Q9H4B4); conditions: Compound concentration 1000.0 nM
[37] = target: Serine/threonine-protein kinase SIK3 (Homo sapiens) (UniProt Q9Y2K2); conditions: Compound concentration 1000.0 nM
[38] = target: Proto-oncogene tyrosine-protein kinase receptor Ret (Homo sapiens) (UniProt P07949); conditions: Compound concentration 1000.0 nM
[39] = target: Serine/threonine-protein kinase RIO3 (Homo sapiens) (UniProt O14730); conditions: Compound concentration 1000.0 nM
[40] = target: Serine/threonine-protein kinase SIK2 (Homo sapiens) (UniProt Q9H0K1); conditions: Compound concentration 1000.0 nM
[41] = target: Serine/threonine-protein kinase 35 (Homo sapiens) (UniProt Q8TDR2); conditions: Compound concentration 1000.0 nM
[42] = target: Testis-specific serine/threonine-protein kinase 3 (Homo sapiens) (UniProt Q96PN8); conditions: Compound concentration 1000.0 nM
[43] = target: Serine/threonine-protein kinase VRK2 (Homo sapiens) (UniProt Q86Y07); conditions: Compound concentration 1000.0 nM
[44] = target: 5-hydroxytryptamine receptor 1E (Homo sapiens) (UniProt P28566); conditions: Compound concentration 10.0 uM
[45] = target: Muscarinic acetylcholine receptor M4 (Homo sapiens) (UniProt P08173); conditions: Compound concentration 10.0 uM
Sequence of Muscarinic acetylcholine receptor M4 (Homo sapiens) (P08173 whole entry): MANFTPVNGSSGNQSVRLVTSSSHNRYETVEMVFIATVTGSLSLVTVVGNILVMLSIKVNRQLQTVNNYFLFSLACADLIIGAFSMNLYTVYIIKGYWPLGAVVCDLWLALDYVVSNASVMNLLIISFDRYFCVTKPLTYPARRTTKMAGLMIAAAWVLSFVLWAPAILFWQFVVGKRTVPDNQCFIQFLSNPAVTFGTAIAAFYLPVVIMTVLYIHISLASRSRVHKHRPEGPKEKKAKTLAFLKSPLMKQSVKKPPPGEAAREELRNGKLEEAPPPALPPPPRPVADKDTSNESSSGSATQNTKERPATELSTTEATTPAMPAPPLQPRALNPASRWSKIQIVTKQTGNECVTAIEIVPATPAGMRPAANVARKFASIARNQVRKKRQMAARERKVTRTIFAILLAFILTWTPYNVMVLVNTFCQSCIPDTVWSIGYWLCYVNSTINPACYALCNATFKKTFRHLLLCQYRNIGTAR

Sequence of Proto-oncogene tyrosine-protein kinase receptor Ret (Homo sapiens) (P07949 whole entry): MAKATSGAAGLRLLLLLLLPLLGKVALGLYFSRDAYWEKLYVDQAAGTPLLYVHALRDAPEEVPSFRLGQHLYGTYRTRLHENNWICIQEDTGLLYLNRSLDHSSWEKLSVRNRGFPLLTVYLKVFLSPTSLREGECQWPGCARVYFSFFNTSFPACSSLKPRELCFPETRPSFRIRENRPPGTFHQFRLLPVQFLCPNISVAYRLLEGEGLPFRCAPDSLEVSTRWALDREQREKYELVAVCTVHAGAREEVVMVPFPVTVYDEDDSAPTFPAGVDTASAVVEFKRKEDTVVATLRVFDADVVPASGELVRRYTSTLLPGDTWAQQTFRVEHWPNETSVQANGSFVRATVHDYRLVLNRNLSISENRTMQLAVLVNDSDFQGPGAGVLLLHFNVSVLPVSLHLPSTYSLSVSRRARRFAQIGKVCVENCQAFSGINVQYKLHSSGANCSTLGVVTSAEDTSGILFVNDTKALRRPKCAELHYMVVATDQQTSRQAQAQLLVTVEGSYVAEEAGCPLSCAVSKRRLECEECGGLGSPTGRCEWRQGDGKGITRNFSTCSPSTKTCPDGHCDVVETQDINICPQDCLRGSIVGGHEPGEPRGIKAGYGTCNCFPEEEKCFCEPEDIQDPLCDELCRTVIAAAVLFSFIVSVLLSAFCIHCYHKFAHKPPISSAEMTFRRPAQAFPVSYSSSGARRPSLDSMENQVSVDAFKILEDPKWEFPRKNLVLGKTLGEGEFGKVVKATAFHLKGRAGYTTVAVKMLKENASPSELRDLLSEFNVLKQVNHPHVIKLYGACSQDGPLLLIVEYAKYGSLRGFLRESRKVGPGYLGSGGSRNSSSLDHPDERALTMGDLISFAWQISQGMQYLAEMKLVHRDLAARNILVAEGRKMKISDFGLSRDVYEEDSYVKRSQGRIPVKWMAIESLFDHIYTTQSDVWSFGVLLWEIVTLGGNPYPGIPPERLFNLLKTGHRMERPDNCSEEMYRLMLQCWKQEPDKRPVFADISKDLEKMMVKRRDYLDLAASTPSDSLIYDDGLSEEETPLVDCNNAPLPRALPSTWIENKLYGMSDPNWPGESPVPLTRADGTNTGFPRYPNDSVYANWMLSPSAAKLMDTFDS
Sequence of Myosin light chain kinase 2, skeletal/cardiac muscle (Homo sapiens) (Q9H1R3 whole entry): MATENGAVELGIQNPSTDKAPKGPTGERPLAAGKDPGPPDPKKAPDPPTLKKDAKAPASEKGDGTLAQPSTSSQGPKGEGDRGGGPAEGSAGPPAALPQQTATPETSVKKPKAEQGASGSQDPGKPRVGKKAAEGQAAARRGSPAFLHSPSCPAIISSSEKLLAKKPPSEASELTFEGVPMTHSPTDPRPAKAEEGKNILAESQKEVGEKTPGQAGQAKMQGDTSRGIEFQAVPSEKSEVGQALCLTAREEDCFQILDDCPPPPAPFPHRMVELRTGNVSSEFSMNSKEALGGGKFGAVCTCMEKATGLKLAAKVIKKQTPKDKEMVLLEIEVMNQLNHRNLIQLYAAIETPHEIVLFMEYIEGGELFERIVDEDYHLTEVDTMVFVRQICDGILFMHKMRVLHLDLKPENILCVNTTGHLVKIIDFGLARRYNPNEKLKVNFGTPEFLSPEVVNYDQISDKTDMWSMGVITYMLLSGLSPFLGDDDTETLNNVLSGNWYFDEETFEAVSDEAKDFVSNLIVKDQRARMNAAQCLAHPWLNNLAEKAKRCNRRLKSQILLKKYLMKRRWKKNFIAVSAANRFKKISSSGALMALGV
Sequence of MAP/microtubule affinity-regulating kinase 4 (Homo sapiens) (Q96L34 whole entry): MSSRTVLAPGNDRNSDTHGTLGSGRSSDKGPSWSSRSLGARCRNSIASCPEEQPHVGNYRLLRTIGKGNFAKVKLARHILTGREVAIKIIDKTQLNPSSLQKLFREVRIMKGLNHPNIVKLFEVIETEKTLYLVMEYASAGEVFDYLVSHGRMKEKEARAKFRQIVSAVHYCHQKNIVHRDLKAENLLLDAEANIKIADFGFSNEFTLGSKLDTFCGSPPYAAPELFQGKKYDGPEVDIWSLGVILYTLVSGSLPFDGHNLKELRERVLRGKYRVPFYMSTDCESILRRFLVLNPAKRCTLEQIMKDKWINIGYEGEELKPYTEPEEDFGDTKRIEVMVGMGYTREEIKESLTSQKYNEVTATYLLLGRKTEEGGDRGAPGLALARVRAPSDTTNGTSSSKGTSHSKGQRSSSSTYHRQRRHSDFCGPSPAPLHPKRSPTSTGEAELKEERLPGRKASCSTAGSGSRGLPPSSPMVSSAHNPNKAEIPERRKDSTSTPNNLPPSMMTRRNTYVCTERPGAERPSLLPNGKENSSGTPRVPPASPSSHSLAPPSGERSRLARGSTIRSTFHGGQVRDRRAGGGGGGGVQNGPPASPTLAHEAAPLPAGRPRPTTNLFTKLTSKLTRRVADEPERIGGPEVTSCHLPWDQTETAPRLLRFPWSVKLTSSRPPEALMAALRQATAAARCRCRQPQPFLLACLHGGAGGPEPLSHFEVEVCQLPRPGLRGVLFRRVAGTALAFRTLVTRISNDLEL
Sequence of Ephrin type-A receptor 5 (Homo sapiens) (P54756 whole entry): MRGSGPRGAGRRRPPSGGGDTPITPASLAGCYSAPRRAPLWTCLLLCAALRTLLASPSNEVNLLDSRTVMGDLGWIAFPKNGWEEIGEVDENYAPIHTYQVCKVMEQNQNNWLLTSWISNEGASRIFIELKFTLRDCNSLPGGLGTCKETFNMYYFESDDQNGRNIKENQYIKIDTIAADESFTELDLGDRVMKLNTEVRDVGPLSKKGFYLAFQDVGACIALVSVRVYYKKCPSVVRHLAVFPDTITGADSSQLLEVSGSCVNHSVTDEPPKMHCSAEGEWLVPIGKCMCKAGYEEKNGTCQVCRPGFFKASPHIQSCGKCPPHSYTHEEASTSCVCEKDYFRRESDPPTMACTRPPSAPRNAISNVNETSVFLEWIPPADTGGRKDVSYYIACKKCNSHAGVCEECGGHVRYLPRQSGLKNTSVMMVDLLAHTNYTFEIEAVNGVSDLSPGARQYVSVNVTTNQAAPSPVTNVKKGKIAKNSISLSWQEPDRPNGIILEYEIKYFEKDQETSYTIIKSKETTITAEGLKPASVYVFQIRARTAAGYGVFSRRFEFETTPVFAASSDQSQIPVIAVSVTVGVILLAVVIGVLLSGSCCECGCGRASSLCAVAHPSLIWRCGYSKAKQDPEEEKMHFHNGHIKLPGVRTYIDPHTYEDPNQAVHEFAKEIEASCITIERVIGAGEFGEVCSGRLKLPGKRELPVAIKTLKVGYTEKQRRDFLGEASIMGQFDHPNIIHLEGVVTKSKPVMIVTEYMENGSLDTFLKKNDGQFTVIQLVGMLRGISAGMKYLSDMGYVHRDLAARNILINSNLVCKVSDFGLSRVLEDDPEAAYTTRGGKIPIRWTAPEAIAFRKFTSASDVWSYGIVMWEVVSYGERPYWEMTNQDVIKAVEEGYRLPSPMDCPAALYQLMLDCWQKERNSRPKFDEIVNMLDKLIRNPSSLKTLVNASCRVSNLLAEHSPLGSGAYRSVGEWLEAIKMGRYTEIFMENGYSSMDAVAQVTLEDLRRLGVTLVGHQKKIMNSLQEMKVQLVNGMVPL
Sequence of Serine/threonine-protein kinase SIK2 (Homo sapiens) (Q9H0K1 whole entry, looked up): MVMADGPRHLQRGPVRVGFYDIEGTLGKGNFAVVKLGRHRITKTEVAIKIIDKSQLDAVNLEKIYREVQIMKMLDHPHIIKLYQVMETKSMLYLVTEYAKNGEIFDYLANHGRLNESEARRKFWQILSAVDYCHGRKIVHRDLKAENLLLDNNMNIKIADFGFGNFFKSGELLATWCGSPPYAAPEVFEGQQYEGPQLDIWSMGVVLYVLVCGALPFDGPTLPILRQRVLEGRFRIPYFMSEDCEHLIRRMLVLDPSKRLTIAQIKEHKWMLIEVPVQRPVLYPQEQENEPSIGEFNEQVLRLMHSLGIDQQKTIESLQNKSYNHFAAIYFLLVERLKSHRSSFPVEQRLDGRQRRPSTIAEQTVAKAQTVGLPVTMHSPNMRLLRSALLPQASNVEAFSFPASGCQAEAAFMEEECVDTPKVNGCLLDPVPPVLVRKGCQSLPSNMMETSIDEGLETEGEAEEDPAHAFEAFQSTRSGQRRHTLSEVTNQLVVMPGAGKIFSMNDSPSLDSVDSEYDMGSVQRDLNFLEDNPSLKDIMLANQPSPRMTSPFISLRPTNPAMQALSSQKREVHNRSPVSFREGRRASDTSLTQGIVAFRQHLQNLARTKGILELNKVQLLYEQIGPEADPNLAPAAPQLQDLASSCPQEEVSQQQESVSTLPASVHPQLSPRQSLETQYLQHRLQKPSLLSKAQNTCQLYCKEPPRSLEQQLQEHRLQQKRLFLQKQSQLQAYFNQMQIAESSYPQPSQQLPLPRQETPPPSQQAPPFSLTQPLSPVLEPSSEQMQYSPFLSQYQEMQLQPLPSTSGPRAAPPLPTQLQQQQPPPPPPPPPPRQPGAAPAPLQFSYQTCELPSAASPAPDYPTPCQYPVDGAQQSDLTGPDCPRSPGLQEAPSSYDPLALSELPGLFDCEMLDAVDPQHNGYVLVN

CN([C@@H]1CCc2c(CC(=O)O)c3cc(S(C)(=O)=O)ccc3n2C1)S(=O)(=O)c1ccc(F)cc1
inactive: residual activity [1] 78% | residual activity [2] 100% | residual activity [3] 100% | residual activity [4] 89% | residual activity [5] 100% | residual activity [6] 100% | residual activity [7] 90% | residual activity [8] 100% | residual activity [9] 100% | residual activity [10] 86% | residual activity [11] 100% | residual activity [12] 100% | residual activity [13] 100% | residual activity [14] 100% | residual activity [15] 78% | residual activity [16] 100% | residual activity [17] 92% | residual activity [18] 100% | residual activity [19] 100% | residual activity [20] 100% | residual activity [21] 91% | residual activity [22] 68% | residual activity [23] 98% | residual activity [24] 95% | residual activity [25] 100% | residual activity [26] 69% | residual activity [27] 100% | residual activity [28] 66% | residual activity [29] 85% | residual activity [30] 90% | residual activity [31] 100% | residual activity [32] 100% | residual activity [33] 100% | residual activity [34] 100% | residual activity [35] 100% | residual activity [36] 70% | residual activity [37] 89% | residual activity [38] 100% | residual activity [39] 94% | residual activity [40] 93% | residual activity [41] 100% | residual activity [42] 100% | residual activity [43] 94% | inhibition [44] 5.5% | inhibition [45] -1.13%

CN([C@@H]1CCc2c(CC(=O)O)c3ccccc3n2C1)S(=O)(=O)c1ccc(F)cc1 [MK-7246]
inactive: residual activity [1] 100% | residual activity [2] 100% | residual activity [3] 100% | residual activity [4] 80% | residual activity [5] 100% | residual activity [6] 100% | residual activity [7] 86% | residual activity [8] 100% | residual activity [9] 100% | residual activity [10] 100% | residual activity [11] 100% | residual activity [12] 100% | residual activity [13] 100% | residual activity [14] 100% | residual activity [15] 99% | residual activity [16] 100% | residual activity [17] 100% | residual activity [18] 100% | residual activity [19] 100% | residual activity [20] 100% | residual activity [21] 95% | residual activity [22] 71% | residual activity [23] 100% | residual activity [24] 93% | residual activity [25] 100% | residual activity [26] 56% | residual activity [27] 100% | residual activity [28] 62% | residual activity [29] 100% | residual activity [30] 87% | residual activity [31] 100% | residual activity [32] 100% | residual activity [33] 100% | residual activity [34] 100% | residual activity [35] 100% | residual activity [36] 85% | residual activity [37] 98% | residual activity [38] 100% | residual activity [39] 100% | residual activity [40] 99% | residual activity [41] 100% | residual activity [42] 100% | residual activity [43] 100% | inhibition [44] 35.8% | inhibition [45] 24.4%

— ChEMBL document CHEMBL4507290 (2021)
